In patent publication EP4667463A1, “DOMIDE MOLECULAR GLUE DERIVATIVE AND USE THEREOF” (CSPC Megalith Biopharmaceutical Co., Ltd., priority 2023, dated 2024):
Where two headings read alike, the source gives them in different places. Values belong to the compound of their own block, whether it stands above or below them.

Experiments:
HL-60 = experiment: In vitro anti-tumor activity of molecular glue compounds, CellTiter-Lumi cell viability assay; format: cell-based; settings: Homo sapiens; HL-60 cells, 96 h incubation; read-out: Cell inhibitory activity (IC50 values) HL-60
Protocol: (§1) Different tumor cells were all commercially available and used for evaluating the anti-tumor inhibitory activity of the compounds of the present disclosure. Various tumor cells were cultured until the cell confluency reached 80%-90%, with cell viability above 90% as determined by trypan blue exclusion. Then, the cells were plated. Specifically, after cell density optimization, 100 µL of each of the cell suspensions of HL-60 and SK-BR-3 cells (cell density: 3000 cells/well), Romas cells (cell density: 6000 cells/well), NCI-H929 cells (cell density: 4000 cells/well), and NCI-H82 cells (cell density: 5000 cells/well) was plated in a BeyoGold™ ultra-low attachment black clear-bottom 96-well plate (Cat. No.: FULA965-24pcs), and the plate was incubated overnight. The next day, after the adherent cells were adhered to the wall and suspension cells requiring aggregation were aggregated, 50 µL of culture medium was aspirated from each well of the 96-well plate. Then, the compounds diluted with the corresponding culture media were added. Specifically, the compounds were serially diluted at a 5-fold gradient starting from the highest concentration of 1 µM, with a final DMSO concentration of 1%o, and the test compounds were then added to the cell culture plate. The plate was incubated in an incubator at 37 °C with 5% carbon dioxide for 96 h. Before measurement, the CellTiter-Lumi™ luminescent cell viability assay reagent was equilibrated to room temperature in the dark. Then, 50 µL of the CellTiter-Lumi™ (Cat. No.: C0065XL) cell viability assay reagent was added to each well of the 96-well plate. The plate was shaken in the dark on a shaker at 300 rpm for 10 min to ensure complete cell lysis. After the reaction was completed, the luminescence was measured on a multi-mode microplate reader. The cell inhibition rate was determined according to the luminescence. Then, a cell viability curve was generated by Graphpad Prism 8.0, and the IC50 values were calculated. The compounds of the present disclosure were tested for activity by the method described above. Table 1. Cell inhibitory activity (IC50 values)

SK-BR-3 = experiment: as above; format: cell-based; settings: Homo sapiens, SK-BR-3 cells
Protocol: as §1

Romas = experiment: as above; format: cell-based; settings: Romas cells, 96 h incubation; read-out: Cell inhibitory activity (IC50 values) Romas
Protocol: as §1

NCI-H82 = experiment: as above; format: cell-based; settings: Homo sapiens; NCI-H82 cells, 96 h incubation; read-out: Cell inhibitory activity (IC50 values) NCI-H82
Protocol: as §1

NCI-H929 = experiment: as above; format: cell-based; settings: Homo sapiens; NCI-H929 cells, 96 h incubation; read-out: Cell inhibitory activity (IC50 values) NCI-H929
Protocol: as §1

[1] = Metabolic stability in liver microsomes; settings: Mouse liver microsomes, after 60 min of incubation
Protocol: (§3) The final concentration of the substrate in the incubation system was 1 µM, and the incubation time was 60 min. Sampling was performed at 0 min, 5 min, 15 min, 30 min, and 60 min. The reaction was stopped with glacial acetonitrile containing an internal standard (testosterone-d3 at a concentration of 10 ng/mL). Verapamil was used as a positive control. […] The natural logarithm of the remaining percentage was subjected to linear fitting with time to determine the elimination rate constant (k).

in vitro [2] = settings: dog, microsomes
Protocol: as §3

in vitro [3] = settings: human, microsomes
Protocol: as §3

[4] = Metabolic stability in liver microsomes; settings: Rat liver microsomes, after 60 min of incubation
Protocol: as §3

[5] = Metabolic stability in liver microsomes; settings: Monkey liver microsomes, after 60 min of incubation
Protocol: as §3

in vitro [6] = settings: monkey, microsomes
Protocol: as §3

[7] = Metabolic stability in liver microsomes; settings: Human liver microsomes, after 60 min of incubation
Protocol: as §3

[8] = Metabolic stability in liver microsomes; settings: Dog liver microsomes, after 60 min of incubation
Protocol: as §3

in vitro [9] = settings: mouse, microsomes
Protocol: as §3

in vitro [10] = settings: rat, microsomes
GSPT1 protein = molecular target: T1, GSPT1 protein (Homo sapiens, UniProt P15170+Q96SW2); experiment: GSPT1 protein degradation, Nano-Glo HiBiT assay in HiBiT-GSPT1 HEK293T cells; format: cell-based; settings: 24 h
T1 construct: An HiBiT protein tag was added to the N-terminus of the endogenous GSPT1 protein of HEK293T cells by CRISPR gene editing technology; endogenous in cells; host or cells: HEK293T (CRISPR knock-in HiBiT-GSPT1 cell strain)
T1 sequence (P15170 whole entry): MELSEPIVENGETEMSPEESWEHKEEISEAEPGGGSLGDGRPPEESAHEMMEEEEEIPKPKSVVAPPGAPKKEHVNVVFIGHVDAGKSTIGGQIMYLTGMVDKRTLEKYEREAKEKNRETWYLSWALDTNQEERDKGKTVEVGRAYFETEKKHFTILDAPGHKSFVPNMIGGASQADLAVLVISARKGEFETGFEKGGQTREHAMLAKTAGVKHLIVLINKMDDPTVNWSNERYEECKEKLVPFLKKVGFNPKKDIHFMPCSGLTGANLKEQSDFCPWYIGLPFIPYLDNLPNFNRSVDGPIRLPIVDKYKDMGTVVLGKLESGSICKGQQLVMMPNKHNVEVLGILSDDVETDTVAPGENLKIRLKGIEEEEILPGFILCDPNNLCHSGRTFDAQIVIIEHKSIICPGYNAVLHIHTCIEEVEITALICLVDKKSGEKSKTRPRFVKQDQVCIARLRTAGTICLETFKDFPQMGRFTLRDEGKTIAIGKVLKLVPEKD
T1 sequence (Q96SW2 whole entry): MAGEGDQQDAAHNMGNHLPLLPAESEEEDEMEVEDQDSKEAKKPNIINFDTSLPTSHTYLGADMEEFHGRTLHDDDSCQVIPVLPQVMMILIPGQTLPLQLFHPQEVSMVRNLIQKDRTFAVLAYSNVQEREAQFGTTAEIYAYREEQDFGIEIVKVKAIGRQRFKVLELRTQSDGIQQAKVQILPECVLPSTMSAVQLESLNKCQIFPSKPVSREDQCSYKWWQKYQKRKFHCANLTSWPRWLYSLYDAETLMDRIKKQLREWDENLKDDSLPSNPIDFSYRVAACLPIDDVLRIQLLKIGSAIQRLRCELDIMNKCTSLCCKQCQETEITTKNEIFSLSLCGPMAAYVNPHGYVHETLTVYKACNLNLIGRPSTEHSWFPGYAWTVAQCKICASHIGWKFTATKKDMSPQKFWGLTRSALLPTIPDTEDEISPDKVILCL
T1 sequence (Q16531 whole entry partner): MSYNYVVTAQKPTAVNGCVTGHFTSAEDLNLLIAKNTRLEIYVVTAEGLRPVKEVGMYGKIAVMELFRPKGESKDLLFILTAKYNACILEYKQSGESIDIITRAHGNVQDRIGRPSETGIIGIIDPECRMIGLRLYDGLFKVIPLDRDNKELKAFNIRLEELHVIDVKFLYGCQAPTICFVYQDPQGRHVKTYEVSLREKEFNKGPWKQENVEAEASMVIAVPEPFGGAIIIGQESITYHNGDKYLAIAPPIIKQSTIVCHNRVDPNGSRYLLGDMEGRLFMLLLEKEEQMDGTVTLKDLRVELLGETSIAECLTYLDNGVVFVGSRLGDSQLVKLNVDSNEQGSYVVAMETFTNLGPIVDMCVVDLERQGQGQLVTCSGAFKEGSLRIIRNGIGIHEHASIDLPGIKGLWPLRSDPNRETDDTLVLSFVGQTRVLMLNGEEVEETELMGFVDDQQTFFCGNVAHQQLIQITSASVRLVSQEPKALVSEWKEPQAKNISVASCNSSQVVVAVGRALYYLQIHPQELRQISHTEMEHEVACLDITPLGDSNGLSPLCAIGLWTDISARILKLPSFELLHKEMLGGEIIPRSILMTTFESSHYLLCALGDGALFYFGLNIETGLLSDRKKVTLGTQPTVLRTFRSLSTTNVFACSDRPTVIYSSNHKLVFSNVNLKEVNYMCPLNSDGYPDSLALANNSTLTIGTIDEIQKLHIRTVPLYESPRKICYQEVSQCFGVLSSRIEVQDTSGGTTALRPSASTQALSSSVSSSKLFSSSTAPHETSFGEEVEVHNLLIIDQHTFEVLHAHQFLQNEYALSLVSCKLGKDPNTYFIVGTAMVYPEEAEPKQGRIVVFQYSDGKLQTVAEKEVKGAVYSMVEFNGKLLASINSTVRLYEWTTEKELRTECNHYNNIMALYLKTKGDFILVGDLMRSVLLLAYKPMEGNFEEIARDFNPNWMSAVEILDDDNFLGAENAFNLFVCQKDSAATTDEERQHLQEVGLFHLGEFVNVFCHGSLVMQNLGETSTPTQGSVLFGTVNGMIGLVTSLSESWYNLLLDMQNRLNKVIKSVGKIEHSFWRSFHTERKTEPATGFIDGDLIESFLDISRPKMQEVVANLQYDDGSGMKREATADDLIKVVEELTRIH
Protocol: This experiment was performed to evaluate the targeting property of the compounds. An HiBiT protein tag was added to the N-terminus of the endogenous GSPT1 protein of HEK293T cells by CRISPR gene editing technology, so as to construct a HiBiT-GSPT1 HEK293T stably transfected cell strain. HiBiT-GSPT1 HEK293T cells were cultured in DMEM containing 10% FBS and 1% PenStrep. When the cell confluency reached 80%-90%, the cells were digested with trypsin, pipetted into single cells, and resuspended in a corresponding culture medium to form a cell suspension. The cells were counted using Cell Countess (NanoEnTek, #Cat. EVE-MC2), and the cell viability was determined by trypan blue exclusion to ensure that the cell viability was above 90%. The cells were plated in a 384-well plate (Corning, #Cat. 3764) at 10,000 cells/40 µL of cell suspension per well, and cultured in an incubator at 37 °C with 5% CO2 overnight. The next day, the test compounds were added to the 384-well plate under conditions of 30 µM highest concentration, 5-fold serial dilution, and 1‰ DMSO. The plate was incubated in the incubator at 37 °C with 5% CO2 for another 24 h. Before measurement, the Nano-Glo HiBiT reagent was equilibrated to room temperature, the LgBiT protein was diluted with the Nano-Glo HiBiT Lytic buffer according to a dilution ratio of 1:100, and the Nano-Glo@HiBiT Lytic substrate was diluted to an appropriate volume according to a ratio of 1:50. After the cell culture plate was equilibrated at room temperature for 10 min, 40 µL of Nano-Glo HiBiT Lytic assay reagent was added to each well. The plate was shaken on a microplate shaker at a rotation speed of 300 rpm for 3 min in the dark. After the reaction was completed, the luminescencevalues were read on BMG PHERASTAR FS (BMG LRBTECH, Cat. No.: PHERAstar FSX), and the DC50 values were calculated using GraphPad Prism 8.0. Table 2. GSPT1 protein degradation

AsPc-1 = experiment: Activity in cell strains with high expression of efflux pump proteins, cell viability assay; format: cell-based; settings: Homo sapiens, ASPC1, AsPc-1 cells, 96 h
Protocol: (§2) Three types of cells used for evaluating the activity of the compounds of the present disclosure against a cell strain with high expression of efflux pump proteins were all purchased from Nanjing Cobioer Biosciences Co., Ltd., and all the cells were derived from ATCC (American Type Culture Collection). Various tumor cells were cultured until the cell confluency reached 80%-90%, with cell viability above 90% as determined by trypan blue exclusion. Then, the cells were plated. Specifically, after cell density optimization, 75 µL of each of three cell suspensions of SNU-5, HCT-15, and AsPc-1 cells (3000 cells/well) was inoculated into a BeyoGold™ ultra-low attachment black clear-bottom 96-well plate (Cat. No.: FULA965-24pcs), and the plate was incubated overnight in a cell incubator at 37 °C with carbon dioxide. The next day, after the cells adhered to the wall, 75 µL of the compounds diluted with the corresponding culture media were added. Specifically, the compounds were serially diluted at a 5-fold gradient starting from the highest concentration of 1 µM, with a final DMSO concentration of 1‰, and the test compounds were then added to the cell culture plate. The plate was incubated in an incubator at 37 °C with 5% carbon dioxide for 96 h. Before measurement, the CellTiter-Lumi™ luminescent cell viability assay reagent was equilibrated to room temperature in the dark. Then, 50 µL of the CellTiter-Lumi™ (Cat. No.: C0065XL) cell viability assay reagent was added to each well of the 96-well plate. The plate was shaken in the dark on a shaker at 300 rpm for 10 min to ensure complete cell lysis. After the reaction was completed, the chemiluminescence intensity was measured on a multi-mode microplate reader. The cell viability inhibition rate was determined according to the chemiluminescence intensity. Then, a cell viability curve was generated by Graphpad Prism 8.0, and the IC50 values were calculated. Table 3. Activity of the compounds of the present disclosure in cell strains with high expression of efflux pump proteins (IC50 value)

SNU-5 = experiment: as above; format: cell-based; settings: Homo sapiens, SNU-5 cells, 96 h
Protocol: as §2

HCT-15 = experiment: as above; format: cell-based; settings: Homo sapiens, HCT-15 cells, 96 h
Protocol: as §2

[11] = 96 h incubation, read-out: Cell inhibitory activity (IC50 values) SK-BR-3

IC50 (HL-60): < 10 nM
IC50 (SK-BR-3; [11]): < 10 nM
IC50 (Romas): < 10 nM
IC50 (NCI-H82): 10 to 50 nM
IC50 (NCI-H929): < 10 nM
Parent drug remaining % [1]: 79.8%
CLint scaled at 1 µM (in vitro [2]): 11.8 mL/min/kg
CLint scaled at 1 h, 1 µM (in vitro [2]): 8.55 mL/min/kg
half-life at 1 µM (in vitro [2]): 4.88 h
CLint scaled at 1 µM (in vitro [3]): 7.03 mL/min/kg
CLint scaled at 1 h, 1 µM (in vitro [3]): 5.27 mL/min/kg
half-life at 1 µM (in vitro [3]): 4.12 h
Parent drug remaining % [4]: 71.0%
Parent drug remaining % [5]: 79.4%
CLint scaled at 1 µM (in vitro [6]): 13.7 mL/min/kg
CLint scaled at 1 h, 1 µM (in vitro [6]): 10.5 mL/min/kg
half-life at 1 µM (in vitro [6]): 2.47 h
Parent drug remaining % [7]: 83.4%
Parent drug remaining % [8]: 86.4%
CLint scaled at 1 µM (in vitro [9]): 32.2 mL/min/kg
CLint scaled at 1 h, 1 µM (in vitro [9]): 23.7 mL/min/kg
half-life at 1 µM (in vitro [9]): 2.9 h
CLint scaled at 1 µM (in vitro [10]): 19.8 mL/min/kg
CLint scaled at 1 h, 1 µM (in vitro [10]): 14.6 mL/min/kg
half-life at 1 µM (in vitro [10]): 2.08 h
SMILES: O=C1CCC(N2Cc3cc(CNC(=O)Nc4ccc(CCCOC5CCNCC5)c(Cl)c4)ccc3C2=O)C(=O)N1 (stereo not shown) [Compound B61]

SMILES: CC(C)(C)OC(=O)N1CCCC(OCCCc2ccc(NC(=O)NCc3ccc4c(c3)CN(C3CCC(=O)NC3=O)C4=O)cc2Cl)C1 (stereo not shown) [Compound A19]
IC50 (SK-BR-3; read-out: SK-BR-3 IC50): 1.22 nM
DC50 (GSPT1 protein): 16 nM

IC50 (AsPc-1): 50 to 200 nM
IC50 (SNU-5): > 1000 nM
IC50 (HCT-15): > 1000 nM
IC50 (HL-60): 10 to 50 nM
IC50 (SK-BR-3; [11]): > 100 nM
IC50 (SK-BR-3; read-out: SK-BR-3 IC50): 32.3 nM
IC50 (Romas): > 100 nM
IC50 (NCI-H82): 50 to 100 nM
IC50 (NCI-H929): 50 to 100 nM
DC50 (GSPT1 protein): 274 nM
SMILES: CNCCOCCc1ccc(NC(=O)NCc2ccc3c(c2)CN(C2CCC(=O)NC2=O)C3=O)cc1Cl (stereo not shown) [Smol006, reference compound]
